According to PMC3639963, “A New Class of Small Molecule Inhibitor of BMP Signaling” (PLoS ONE, 2013):

What was measured:
Assay in all cases: Nanosyn kinase profiling
Format in all cases: biochemical
Details in all cases: read-out: Percentage inhibition; for inhibition at 0.1 µM: 0.1 µM inhibitor; for inhibition at 1 µM: 1 µM inhibitor
[1] = target: T1, MARK3 (Homo sapiens, UniProt P27448)
T1 construct: purchased Nanosyn (enzymatic panel); SGC in-house recombinant human kinases (DSF panel); Invitrogen (ALK1-6)
Experimental: (§1) Percentage inhibition was determined for each kinase at both 0.1 µM and 1 µM inhibitor concentration (supplemental Table S2). […]. […]. When visualized on a kinase phylogenetic tree, these were primarily clustered within the receptor tyrosine kinases (TKs) as well as the calmodulin-dependent kinases (CAMKs) (Figure 2C).
(§2) Inhibitor selectivity profiling against 200 human kinases at 0.1 and 1 µM inhibitor concentration was performed by Nanosyn (www.nanosyn.com).

[2] = target: T2, AURKA (Homo sapiens, UniProt O14965)
T2 construct: purchased Nanosyn (enzymatic panel); SGC in-house recombinant human kinases (DSF panel); Invitrogen (ALK1-6)
T2 sequence (O14965 1-403): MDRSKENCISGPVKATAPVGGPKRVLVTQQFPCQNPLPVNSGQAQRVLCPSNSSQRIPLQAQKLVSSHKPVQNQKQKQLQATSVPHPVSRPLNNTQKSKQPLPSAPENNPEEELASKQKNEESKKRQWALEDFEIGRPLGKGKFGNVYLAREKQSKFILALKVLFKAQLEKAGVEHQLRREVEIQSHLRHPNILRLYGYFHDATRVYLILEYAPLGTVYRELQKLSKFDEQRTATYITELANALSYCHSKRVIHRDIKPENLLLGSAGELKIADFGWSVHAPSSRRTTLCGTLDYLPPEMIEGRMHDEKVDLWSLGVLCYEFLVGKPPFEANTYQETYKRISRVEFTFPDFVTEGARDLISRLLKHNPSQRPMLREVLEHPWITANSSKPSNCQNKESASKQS
Experimental: as §1, §2

[3] = target: T3, GSK3β (Homo sapiens, UniProt P49841)
T3 construct: purchased Nanosyn (enzymatic panel); SGC in-house recombinant human kinases (DSF panel); Invitrogen (ALK1-6)
Experimental: as §1, §2

[4] = target: T4, TTK (Homo sapiens, UniProt P33981)
T4 construct: purchased Nanosyn (enzymatic panel); SGC in-house recombinant human kinases (DSF panel); Invitrogen (ALK1-6)
T4 sequence (P33981 1-857): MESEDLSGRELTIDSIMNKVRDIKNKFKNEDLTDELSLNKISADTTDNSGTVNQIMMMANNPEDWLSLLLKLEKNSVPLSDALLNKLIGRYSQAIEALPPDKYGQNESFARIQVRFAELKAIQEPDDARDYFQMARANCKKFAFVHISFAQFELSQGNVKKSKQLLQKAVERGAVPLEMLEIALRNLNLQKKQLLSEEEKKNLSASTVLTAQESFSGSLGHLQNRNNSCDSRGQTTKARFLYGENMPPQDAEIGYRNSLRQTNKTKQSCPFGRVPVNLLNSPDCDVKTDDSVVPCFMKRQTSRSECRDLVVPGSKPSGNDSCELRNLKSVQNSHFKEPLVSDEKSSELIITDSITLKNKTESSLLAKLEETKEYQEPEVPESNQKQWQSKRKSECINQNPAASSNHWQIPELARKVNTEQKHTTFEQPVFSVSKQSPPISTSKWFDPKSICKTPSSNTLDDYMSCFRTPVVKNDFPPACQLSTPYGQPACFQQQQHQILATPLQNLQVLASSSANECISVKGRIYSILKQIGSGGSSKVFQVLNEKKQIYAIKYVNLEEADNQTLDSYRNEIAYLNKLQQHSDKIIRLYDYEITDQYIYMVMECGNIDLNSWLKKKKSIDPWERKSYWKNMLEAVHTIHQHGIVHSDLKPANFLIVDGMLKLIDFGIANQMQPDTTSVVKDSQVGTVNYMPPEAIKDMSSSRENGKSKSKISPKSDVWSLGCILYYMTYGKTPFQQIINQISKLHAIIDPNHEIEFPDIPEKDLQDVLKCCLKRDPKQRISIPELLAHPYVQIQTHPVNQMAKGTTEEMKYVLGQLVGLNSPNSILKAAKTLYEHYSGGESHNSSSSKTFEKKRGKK
Experimental: as §1, §2

[5] = target: T5, P38γ (Homo sapiens, UniProt P53778)
T5 construct: purchased Nanosyn (enzymatic panel); SGC in-house recombinant human kinases (DSF panel); Invitrogen (ALK1-6)
T5 sequence (P53778 1-367): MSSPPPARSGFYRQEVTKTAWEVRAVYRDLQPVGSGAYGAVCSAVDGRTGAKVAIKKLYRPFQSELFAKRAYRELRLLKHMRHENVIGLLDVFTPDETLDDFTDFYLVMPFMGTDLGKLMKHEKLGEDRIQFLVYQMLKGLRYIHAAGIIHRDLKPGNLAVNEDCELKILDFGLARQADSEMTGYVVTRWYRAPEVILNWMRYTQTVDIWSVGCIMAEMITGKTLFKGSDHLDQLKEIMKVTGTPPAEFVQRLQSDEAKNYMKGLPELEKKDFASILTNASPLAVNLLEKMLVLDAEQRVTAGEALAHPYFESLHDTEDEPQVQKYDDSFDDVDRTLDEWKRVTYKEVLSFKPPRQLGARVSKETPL
Experimental: as §1, §2

[6] = target: T6, PI3-K-δ (Homo sapiens, UniProt O00329)
T6 construct: purchased Nanosyn (enzymatic panel); SGC in-house recombinant human kinases (DSF panel); Invitrogen (ALK1-6)
Experimental: as §1, §2

[7] = target: T7, TRKC (Homo sapiens, UniProt Q16288)
T7 construct: purchased Nanosyn (enzymatic panel); SGC in-house recombinant human kinases (DSF panel); Invitrogen (ALK1-6)
Experimental: as §1, §2

[8] = target: T8, DYRK1A (Homo sapiens, UniProt Q13627)
T8 construct: purchased Nanosyn (enzymatic panel); SGC in-house recombinant human kinases (DSF panel); Invitrogen (ALK1-6)
Experimental: as §1, §2

[9] = target: T9, CHEK2 (Homo sapiens, UniProt O96017)
T9 construct: purchased Nanosyn (enzymatic panel); SGC in-house recombinant human kinases (DSF panel); Invitrogen (ALK1-6)
Experimental: as §1, §2

[10] = target: T10, TXK (Homo sapiens, UniProt P42681)
T10 construct: purchased Nanosyn (enzymatic panel); SGC in-house recombinant human kinases (DSF panel); Invitrogen (ALK1-6)
T10 sequence (P42681 1-527): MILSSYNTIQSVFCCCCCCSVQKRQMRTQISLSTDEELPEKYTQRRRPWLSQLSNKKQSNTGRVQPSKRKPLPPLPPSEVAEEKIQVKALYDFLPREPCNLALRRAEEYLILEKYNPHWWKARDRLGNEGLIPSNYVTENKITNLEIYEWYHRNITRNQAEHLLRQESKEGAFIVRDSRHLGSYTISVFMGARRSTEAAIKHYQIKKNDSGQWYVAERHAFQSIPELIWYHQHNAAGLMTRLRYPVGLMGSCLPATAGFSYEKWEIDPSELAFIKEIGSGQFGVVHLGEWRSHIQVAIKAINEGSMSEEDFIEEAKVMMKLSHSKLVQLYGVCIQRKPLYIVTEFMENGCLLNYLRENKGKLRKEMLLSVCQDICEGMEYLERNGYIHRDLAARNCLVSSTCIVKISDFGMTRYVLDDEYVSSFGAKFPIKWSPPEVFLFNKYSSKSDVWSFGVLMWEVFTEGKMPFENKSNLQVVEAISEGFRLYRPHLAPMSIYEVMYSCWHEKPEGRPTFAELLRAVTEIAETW
Experimental: as §1, §2

T1 sequence (P27448 whole entry): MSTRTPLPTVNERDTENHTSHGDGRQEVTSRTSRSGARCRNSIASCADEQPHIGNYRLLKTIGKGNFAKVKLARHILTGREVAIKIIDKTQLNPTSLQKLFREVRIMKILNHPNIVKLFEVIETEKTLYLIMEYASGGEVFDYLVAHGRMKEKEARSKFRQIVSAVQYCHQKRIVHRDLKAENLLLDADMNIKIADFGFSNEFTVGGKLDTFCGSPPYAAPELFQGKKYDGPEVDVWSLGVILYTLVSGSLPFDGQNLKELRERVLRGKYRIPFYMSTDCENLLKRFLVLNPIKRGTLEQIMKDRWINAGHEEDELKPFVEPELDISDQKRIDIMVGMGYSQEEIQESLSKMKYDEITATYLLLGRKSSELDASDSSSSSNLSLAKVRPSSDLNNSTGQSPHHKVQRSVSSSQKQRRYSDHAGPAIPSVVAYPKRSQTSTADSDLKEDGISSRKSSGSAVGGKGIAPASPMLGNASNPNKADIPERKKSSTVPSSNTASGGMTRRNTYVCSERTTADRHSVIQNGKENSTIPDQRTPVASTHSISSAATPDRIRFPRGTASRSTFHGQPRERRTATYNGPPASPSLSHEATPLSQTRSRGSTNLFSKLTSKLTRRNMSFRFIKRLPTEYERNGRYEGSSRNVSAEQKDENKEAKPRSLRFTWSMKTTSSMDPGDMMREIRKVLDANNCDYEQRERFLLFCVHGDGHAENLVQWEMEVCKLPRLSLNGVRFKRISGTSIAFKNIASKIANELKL
T6 sequence (O00329 whole entry): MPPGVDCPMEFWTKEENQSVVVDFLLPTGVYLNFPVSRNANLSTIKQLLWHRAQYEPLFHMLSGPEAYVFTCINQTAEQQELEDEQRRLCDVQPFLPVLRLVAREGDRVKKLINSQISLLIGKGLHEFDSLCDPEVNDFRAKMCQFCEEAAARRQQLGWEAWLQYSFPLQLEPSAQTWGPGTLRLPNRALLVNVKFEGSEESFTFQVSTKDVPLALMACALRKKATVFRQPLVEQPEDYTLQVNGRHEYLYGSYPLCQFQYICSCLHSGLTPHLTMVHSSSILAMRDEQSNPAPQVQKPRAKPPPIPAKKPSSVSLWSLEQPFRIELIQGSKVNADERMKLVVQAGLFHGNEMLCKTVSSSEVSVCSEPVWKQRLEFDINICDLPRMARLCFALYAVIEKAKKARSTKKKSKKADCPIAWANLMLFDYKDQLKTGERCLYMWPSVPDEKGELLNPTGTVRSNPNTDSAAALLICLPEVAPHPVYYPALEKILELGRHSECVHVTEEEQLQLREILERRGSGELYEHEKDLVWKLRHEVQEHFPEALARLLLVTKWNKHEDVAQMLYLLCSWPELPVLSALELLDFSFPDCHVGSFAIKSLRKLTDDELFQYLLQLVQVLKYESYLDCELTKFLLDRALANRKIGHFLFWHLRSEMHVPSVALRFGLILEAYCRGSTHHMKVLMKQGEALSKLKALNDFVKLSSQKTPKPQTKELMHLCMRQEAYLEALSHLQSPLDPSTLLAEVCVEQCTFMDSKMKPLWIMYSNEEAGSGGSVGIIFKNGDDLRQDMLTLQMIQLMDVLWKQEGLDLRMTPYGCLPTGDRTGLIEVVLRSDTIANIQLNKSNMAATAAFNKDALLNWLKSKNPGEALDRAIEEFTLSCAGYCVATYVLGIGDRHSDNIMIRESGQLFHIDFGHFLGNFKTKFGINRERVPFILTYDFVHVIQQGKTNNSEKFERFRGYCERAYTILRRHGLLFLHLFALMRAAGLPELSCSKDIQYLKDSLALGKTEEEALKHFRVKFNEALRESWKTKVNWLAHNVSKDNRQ
T6 sequence (P27986 whole entry partner): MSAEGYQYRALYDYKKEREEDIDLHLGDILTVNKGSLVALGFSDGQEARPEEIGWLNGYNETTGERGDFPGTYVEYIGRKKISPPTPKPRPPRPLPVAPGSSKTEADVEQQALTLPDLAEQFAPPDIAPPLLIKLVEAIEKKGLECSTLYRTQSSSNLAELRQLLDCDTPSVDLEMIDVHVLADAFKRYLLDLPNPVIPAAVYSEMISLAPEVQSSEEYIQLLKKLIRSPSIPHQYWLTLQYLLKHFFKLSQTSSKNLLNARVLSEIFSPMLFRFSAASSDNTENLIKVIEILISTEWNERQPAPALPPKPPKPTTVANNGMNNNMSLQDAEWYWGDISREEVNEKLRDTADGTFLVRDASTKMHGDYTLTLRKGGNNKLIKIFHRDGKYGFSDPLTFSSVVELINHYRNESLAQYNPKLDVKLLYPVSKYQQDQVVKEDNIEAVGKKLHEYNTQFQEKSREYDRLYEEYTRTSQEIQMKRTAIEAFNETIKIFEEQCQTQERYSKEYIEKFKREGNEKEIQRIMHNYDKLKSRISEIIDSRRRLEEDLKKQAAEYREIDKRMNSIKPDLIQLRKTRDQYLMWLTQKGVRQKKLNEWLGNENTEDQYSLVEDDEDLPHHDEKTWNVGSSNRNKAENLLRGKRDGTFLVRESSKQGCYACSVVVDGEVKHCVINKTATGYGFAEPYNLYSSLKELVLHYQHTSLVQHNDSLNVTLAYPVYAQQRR
T3 sequence (P49841 whole entry): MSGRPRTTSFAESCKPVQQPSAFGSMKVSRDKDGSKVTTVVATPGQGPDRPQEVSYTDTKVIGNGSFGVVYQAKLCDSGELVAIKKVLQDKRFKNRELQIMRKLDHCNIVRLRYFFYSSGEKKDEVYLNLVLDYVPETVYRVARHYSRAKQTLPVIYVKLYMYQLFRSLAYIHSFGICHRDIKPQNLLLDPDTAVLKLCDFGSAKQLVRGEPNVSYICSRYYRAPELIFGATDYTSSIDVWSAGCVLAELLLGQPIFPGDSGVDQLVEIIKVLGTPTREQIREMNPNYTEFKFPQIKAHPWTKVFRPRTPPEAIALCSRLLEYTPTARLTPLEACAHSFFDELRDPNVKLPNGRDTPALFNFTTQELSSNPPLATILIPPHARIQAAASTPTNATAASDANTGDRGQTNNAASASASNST
T7 sequence (Q16288 32-839): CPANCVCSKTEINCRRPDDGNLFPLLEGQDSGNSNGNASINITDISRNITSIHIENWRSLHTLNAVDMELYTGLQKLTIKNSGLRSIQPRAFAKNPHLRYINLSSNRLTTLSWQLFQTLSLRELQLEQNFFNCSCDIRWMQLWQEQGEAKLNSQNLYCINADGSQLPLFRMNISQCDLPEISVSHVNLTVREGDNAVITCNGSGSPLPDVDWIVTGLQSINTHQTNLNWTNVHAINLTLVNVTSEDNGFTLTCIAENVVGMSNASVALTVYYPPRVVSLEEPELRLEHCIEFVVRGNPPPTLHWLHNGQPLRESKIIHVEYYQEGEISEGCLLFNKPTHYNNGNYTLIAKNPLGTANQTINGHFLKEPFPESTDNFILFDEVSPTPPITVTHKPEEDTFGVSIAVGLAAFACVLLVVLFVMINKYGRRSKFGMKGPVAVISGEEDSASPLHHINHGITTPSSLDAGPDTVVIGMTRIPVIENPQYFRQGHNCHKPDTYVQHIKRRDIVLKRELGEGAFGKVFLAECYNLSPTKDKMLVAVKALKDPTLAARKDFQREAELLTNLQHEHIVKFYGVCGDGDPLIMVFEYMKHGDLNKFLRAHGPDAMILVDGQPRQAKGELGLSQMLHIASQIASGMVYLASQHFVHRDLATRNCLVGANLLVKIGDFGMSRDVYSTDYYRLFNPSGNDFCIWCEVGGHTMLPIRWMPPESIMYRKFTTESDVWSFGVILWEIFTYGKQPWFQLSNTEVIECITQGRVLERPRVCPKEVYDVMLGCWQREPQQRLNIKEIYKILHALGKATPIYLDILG
T9 sequence (O96017 whole entry): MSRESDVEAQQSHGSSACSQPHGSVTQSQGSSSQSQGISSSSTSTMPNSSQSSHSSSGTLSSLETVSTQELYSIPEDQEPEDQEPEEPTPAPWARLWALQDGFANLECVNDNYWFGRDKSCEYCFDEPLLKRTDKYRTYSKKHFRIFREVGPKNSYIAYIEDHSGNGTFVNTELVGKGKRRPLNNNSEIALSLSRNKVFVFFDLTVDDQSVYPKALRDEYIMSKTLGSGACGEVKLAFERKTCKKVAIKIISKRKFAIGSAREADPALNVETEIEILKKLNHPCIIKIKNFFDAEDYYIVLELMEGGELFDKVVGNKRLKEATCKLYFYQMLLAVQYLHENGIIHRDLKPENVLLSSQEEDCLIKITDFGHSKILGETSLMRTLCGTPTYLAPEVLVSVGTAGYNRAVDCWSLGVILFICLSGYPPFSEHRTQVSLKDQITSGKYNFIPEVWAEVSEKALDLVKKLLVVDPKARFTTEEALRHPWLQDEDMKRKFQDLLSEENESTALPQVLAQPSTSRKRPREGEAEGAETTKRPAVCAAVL

Row | Structure (SMILES) | inhibition at 0.1 µM [1] [%] | inhibition at 1 µM [1] [%] | inhibition at 0.1 µM [2] [%] | inhibition at 1 µM [2] [%] | inhibition at 0.1 µM [3] [%] | inhibition at 1 µM [3] [%] | inhibition at 0.1 µM [4] [%] | inhibition at 1 µM [4] [%] | inhibition at 0.1 µM [5] [%] | inhibition at 1 µM [5] [%] | inhibition at 0.1 µM [6] [%] | inhibition at 1 µM [6] [%] | inhibition at 0.1 µM [7] [%] | inhibition at 1 µM [7] [%] | inhibition at 0.1 µM [8] [%] | inhibition at 1 µM [8] [%] | inhibition at 0.1 µM [9] [%] | inhibition at 1 µM [9] [%] | inhibition at 0.1 µM [10] [%] | inhibition at 1 µM [10] [%]
1 | COc1cc(-c2cc(-c3cccc(O)c3)cnc2N)cc(OC)c1OC [K02288, 3-[6-amino-5-(3,4,5-trimethoxy-phenyl)-pyridin-3-yl]-phenol] | 2.6 | 5.6 | -2 | -1 | 0.5 | 1.6 | -4 | -1 | -1 | -1 | 0.8 | 2.5 | 2.7 | 2.4 | 1.9 | 4.1 | -1 | 2.5 | 2.8 | 36
2 | c1ccc2c(-c3cnn4cc(-c5ccc(N6CCNCC6)cc5)cnc34)ccnc2c1 [LDN-193189] | 11 | 63 | 4.2 | 23 | 2.7 | 2.1 | 4.5 | 7.6 | 1.2 | 1.3 | -1 | 10 | 1.6 | 3.9 | 10 | 53 | 1.5 | 2 | 4.1 | 16
